Source: paper PMC5065787 (Bioorganic & medicinal chemistry, 2016)
Substitutions are numbered along the chain they refer to. In names and notes the source's numbering stands. Blank lines part the entries; values can stand above or below the molecule they belong to.

How the values were obtained:
h15-LOX-1 = conditions: cited from earlier work
h15-LOX-1 F414I = target: T1, h15-LOX-1 F414I (Homo sapiens, UniProt P16050, F414I); test: Steady-state substrate kinetics, F414I; assay type: biochemical; conditions: error in parentheses
T1 sequence (P16050 1-662 F414I): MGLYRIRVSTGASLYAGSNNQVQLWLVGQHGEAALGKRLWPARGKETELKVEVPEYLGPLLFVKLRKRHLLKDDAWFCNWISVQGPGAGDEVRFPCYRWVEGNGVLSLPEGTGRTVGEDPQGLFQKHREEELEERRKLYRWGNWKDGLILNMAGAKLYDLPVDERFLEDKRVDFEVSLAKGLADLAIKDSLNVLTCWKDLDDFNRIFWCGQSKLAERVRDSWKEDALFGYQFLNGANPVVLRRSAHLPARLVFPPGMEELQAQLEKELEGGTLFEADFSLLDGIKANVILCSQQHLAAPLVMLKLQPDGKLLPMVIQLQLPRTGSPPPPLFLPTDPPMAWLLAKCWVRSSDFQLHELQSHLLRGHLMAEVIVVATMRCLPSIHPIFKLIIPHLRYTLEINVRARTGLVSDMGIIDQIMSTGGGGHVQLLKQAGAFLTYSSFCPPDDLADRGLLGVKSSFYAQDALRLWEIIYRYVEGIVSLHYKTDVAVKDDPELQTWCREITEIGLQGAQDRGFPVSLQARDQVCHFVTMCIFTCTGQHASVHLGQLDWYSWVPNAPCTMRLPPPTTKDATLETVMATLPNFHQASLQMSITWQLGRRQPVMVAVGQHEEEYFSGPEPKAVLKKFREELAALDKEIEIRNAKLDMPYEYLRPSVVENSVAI

WT h15-LOX-1 = target: T2, WT h15-LOX-1 (Homo sapiens, UniProt P16050); test: Steady-state substrate kinetics, WT; assay type: biochemical; conditions: error in parentheses
T2 sequence (P16050 1-662): T1 sequence (P16050 1-662 F414I) with I414F

[1] = cited from earlier work
dog LOX ortholog = conditions: cited from earlier work
rat LOX ortholog = conditions: cited from earlier work
[2] = possibly due to cellular lability of the ester moiety; cited from earlier work
[3] = cited from earlier work; remark: listed apart in the source
[4] = substrate: CCCCC/C=C\C/C=C\C/C=C\C/C=C\CCCC(=O)O; test: Steady-state substrate kinetics, Q547L; assay type: biochemical, human; conditions: other: Q547L; error in parentheses; unit inferred; pH 7.5
[5] = substrate: CCCCC/C=C\C/C=C\C/C=C\C/C=C\CCCC(=O)O; test: Steady-state substrate kinetics, L407A; assay type: biochemical, human; conditions: other: L407A; error in parentheses; unit inferred; pH 7.5
[6] = substrate: CCCCC/C=C\C/C=C\C/C=C\C/C=C\CCCC(=O)O; test: Steady-state substrate kinetics, F414W; assay type: biochemical, human; conditions: other: F414W; error in parentheses; unit inferred; pH 7.5
[7] = substrate: CCCCC/C=C\C/C=C\C/C=C\C/C=C\CCCC(=O)O; test: Steady-state substrate kinetics, E356Q; assay type: biochemical, human; conditions: other: E356Q; error in parentheses; unit inferred; pH 7.5
[8] = substrate: CCCCC/C=C\C/C=C\C/C=C\C/C=C\CCCC(=O)O; test: Steady-state substrate kinetics, F414I; assay type: biochemical, human; conditions: other: F414I; error in parentheses; unit inferred; pH 7.5

Molecule: CCCCCc1ccc(S(=O)(=O)NCCc2c(-c3ccc(C(F)(F)F)cc3)[nH]c3ccccc23)cc1 [tryptamine sulfonamide]
potency against h15-LOX-1 (h15-LOX-1): 21 nM

kcat (h15-LOX-1 F414I; no unit in table (sec^−1)): 1.6 (0.03)
Km (h15-LOX-1 F414I; unit inferred): 6.1 µM
kcat (WT h15-LOX-1; no unit in table (sec^−1)): 11 (0.4)
Km (WT h15-LOX-1; substrate 1-20 µM, unit inferred): 7.7 µM
Molecule: CCCCC/C=C\C/C=C\CCCCCCCC(=O)O [LA, linoleic acid]

Molecule: O=C(Nc1ccc(F)cc1Cl)c1c[nH]nn1 [BLX-2477, N-(2-chloro-4-fluorophenyl)triazole-4-carboxamide]
adverse off-target effects in mini-pigs [1]: adverse off-target effects
potency against dog LOX ortholog (dog LOX ortholog): not potent
potency against rat LOX ortholog (rat LOX ortholog): not potent
potency against h15-LOX-1 (h15-LOX-1): 99 nM

Molecule: O=C(OCC#CCSc1nnc(-c2cccc3ccccc23)o1)c1cccs1 [ML094, 4-(5-(Naphthalen-1-yl)-1,3,4-oxadiazol-2-ylthio)but-2-ynylthiophene-2-carboxylate]
activity in vivo [2]: no activity

Molecule: CNc1oc(-c2cccc3ccccc23)nc1C#N [ML351, 5-(methylamino)-2-(naphthalene-1-yl)oxazole-4-carbonitrile]
in vivo activity in mice [3]: exhibits in vivo activity

B1: h15-LOX-1 Q547L (Homo sapiens; Q547L) (protein)
chain: T1 sequence (P16050 1-662 F414I) with I414F, Q547L
Km [4]: 11 µM

B2: h15-LOX-1 L407A (Homo sapiens; L407A) (protein)
chain: T1 sequence (P16050 1-662 F414I) with L407A, I414F
Km [5]: 5.5 µM

B3: h15-LOX-1 F414W (Homo sapiens; F414W) (protein)
chain: T1 sequence (P16050 1-662 F414I) with I414W
Km [6]: 6.5 µM

B4: h15-LOX-1 E356Q (Homo sapiens; E356Q) (protein)
chain: T1 sequence (P16050 1-662 F414I) with E356Q, I414F
Km [7]: 4.1 µM

B5: h15-LOX-1 F414I (Homo sapiens; F414I) (protein)
chain: T1 sequence (P16050 1-662 F414I)
Km [8]: 11 µM
